Measured values reported in PubChem BioAssay (NCI).
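Following 48 hours of exposure in 96-well plates, responses at five concentrations were used to interpolate endpoints linearly. Here, GI50 denotes the concentration required for 50% inhibition of growth. TGI denotes the concentration required for complete inhibition of growth.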

Columns and labels:
Test in all cases: NCI-60 cell line screen, 48 h
[1] = system: CCRF-CEM leukemia
[2] = system: COLO 205 colon
[3] = system: HCT-15 colon
[4] = system: LOX IMVI melanoma
[5] = system: NCI-H226 lung
[6] = system: OVCAR-3 ovarian
[7] = system: OVCAR-5 ovarian
[8] = system: SW-620 colon

Row | SMILES | GI50 [1] [nM] | TGI [1] [µM] | GI50 [2] [µM] | TGI [2] [µM] | GI50 [3] [µM] | TGI [3] [µM] | GI50 [4] [nM] | TGI [4] [µM] | GI50 [5] [µM] | TGI [5] [µM] | GI50 [6] [µM] | TGI [6] [µM] | GI50 [7] [µM] | TGI [7] [µM] | GI50 [8] [nM] | TGI [8] [µM]
1 | CCCN(CCC)c1ccc(CO)c(C)c1 | 17700 | 59.9 | 19.4 | 68.8 | 51.9 | > 100 | > 100000 | > 100 | 9.4 | 23.7 | 23 | > 100 | 13.1 | 44.2 | > 100000 | > 100
2 | CN1C(=O)CNC(=O)[C@H](NC(=O)c2nc3ccccc3cc2O)CSSC[C@H]1C(=O)NCCc1nc2ccccc2cc1O | 3250 | > 52.7 | 2.94 | 12.7 | 20.7 | > 62.5 | 442 | 6.77 | 17.3 | 65.2 | 4.61 | 18.2 | 24.9 | 62.1 | 5650 | 35.3
3 | CC(C)(C)c1ccc([I+]c2ccc(C(C)(C)C)cc2)cc1 | 1170 | 9.14 | 1.06 | 2.8 | 5.08 | 18.2 | 1310 | 2.74 | 1.29 | 5.32 | 1.44 | 6.87 | 3.24 | 12.9 | 1560 | 10.7
4 | CC(=O)/C=C/C1=C(c2cc3ccccc3s2)c2ccccc2CC1 |  |  | 29.9 | > 100 | 21.8 | 67.3 | 20300 | 67.3 | 19.8 | 40.8 | 19.4 | 45 | 27 | 67.9 | 32600 | > 100
5 | O=C(Nc1ccc(Br)cc1)Nc1n[nH]c2ccccc12 | 6800 | > 100 | > 100 | > 100 | 17.3 | > 100 | > 100000 | > 100 | > 91 | > 100 | > 100 | > 100 | > 100 | > 100 | > 100000 | > 100
6 | O=C(Nc1cc(C(F)(F)F)ccc1F)Nc1n[nH]c2ccccc12 |  |  | > 100 | > 100 | > 100 | > 100 | > 100000 | > 100 | > 100 | > 100 | > 100 | > 100 | > 100 | > 100 | > 100000 | > 100
7 | COc1cc(OC)c2c(=O)c(O)c(-c3ccc(OC)c(OC)c3)oc2c1 |  | > 100 |  | > 100 |  | > 100 |  | > 100 |  | > 100 |  | > 100 |  | > 100 |  | > 100
8 | CC(ONC(=O)c1cc(C(F)(F)F)cc(C(F)(F)F)c1)C(=O)Nc1ccc(Cl)cc1 (stereo not given) | 1090 | 5.38 | 5.32 | 25.8 | 4.98 | 20 | 4020 | 14 | 7.31 | > 64.4 | 4.25 | > 76.6 | 5.53 | 25.1 | 5640 | 23.7
9 | Cn1c(=O)cc2c3c(c(NCCCO)ccc31)C(=O)c1ccccc1-2 | 3290 | > 100 | 3.86 | > 100 | 3.86 | > 100 | 1440 | 20.7 | 3.01 | > 100 | 5.69 | > 100 | 32.8 | > 100 | 875 | > 100
10 | COc1ccc(C(O)CNC(=O)c2ccccc2)cc1 (stereo not given) |  | > 100 |  | > 100 |  | > 100 |  | > 100 |  | > 100 |  | > 100 |  | > 100 |  | > 100
11 | C#C[C@]1(O)CC[C@H]2[C@@H]3CC=C4c5sc(N=C(N)N)nc5CC[C@]4(C)[C@H]3CC[C@@]21C | 365 | 3.43 | 0.667 | 2.24 | 0.525 | 1.98 | 443 | 1.63 | 1.82 | 3.97 | 1.36 | 2.82 | 1.33 | 2.65 | 541 | 1.96
12 | COc1cc(CSc2nc3ccc(C)cc3c(=O)n2Cc2ccccc2)cc(OC)c1OC | 2370 | > 100 | 1.05 | 3.13 | 0.773 | > 100 | 4660 | > 100 | 11.5 | 96.1 | 0.956 | 7.02 | 4.82 | > 100 | 1560 | > 100
13 | CC(C)=CCc1c(O)cc(/C=C/c2cc(O)c3c(c2)C[C@@H]2C(C)(C)[C@H](O)[C@H](O)C[C@@]2(C)O3)cc1O | < 1 | 2 | 1.37 | 3.82 | 1.28 | > 10 | 2.1 | 3.02 | 1.99 | > 10 | 1.5 | 5.11 | 1.36 | > 7.96 | 110 | 1.88
14 | O=C1Nc2ccccc2C1Cc1ccccc1 (stereo not given) |  | > 100 |  | > 100 |  | > 100 |  | > 100 |  | > 100 |  | > 100 |  | > 100 |  | > 100
15 | CN1CCN(c2ccc3c4c(cccc24)C(=O)N(CCN2CCN(CCCN4CCN(CCN5C(=O)c6cccc7c(N8CCN(C)CC8)ccc(c67)C5=O)CC4)CC2)C3=O)CC1 |  |  | 5.6 | 21.8 | 4.08 | 11.3 | 4560 | 11.6 | 6 | 14.4 | 8.2 | 15.8 | 5.79 | 11.9 | 1590 | 50
16 | COc1ccc(O)c(C(=O)c2ccc(C(=O)O[C@@H]3CCCNC[C@H]3NC(=O)c3ccncc3)cc2)c1F | 313 | > 6.03 | 1.16 | > 25 | 0.918 | > 25 | 1190 | > 25 | 1.68 | > 25 | 0.961 | > 7.35 | > 19.3 | > 25 |  | > 25
